In test [1] the target is hGYS1 enzyme (recombinant hGYS1/GN1 protein) (Homo sapiens (Human), UniProt P13807). Put plainly: GYS1 coupled enzyme assay (PK/LDH). As to conditions: hGYS1/GN1 50 nM, UDP-Glucose 0.8 mM, G6P 1 mM; geometric mean of at least 2 runs. In kind it is biochemical.
Test [2] concerns hGYS1 enzyme / glycogen synthesis in HeLa cells. As to the kind of experiment: GYS1 cell based assay (glycogen synthesis, Glucose-glo). Set-up: species or system human. The settings on record: Homo sapiens, HeLa, 24 h, 24 h incubation, 20 mM glucose, geometric mean of at least 2 runs. The method, boiled down: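 HeLa cells starved 24 h in medium containing only 1× Glutamax were plated onto compound in medium with 20 mM glucose (1% DMSO final) for 24 h, 37 °C, 5% CO2. Acid lysates were Tris-quenched, glucoamylase-digested (pH 5.3, 1 h, 37 °C) and read by Glucose-glo luminescence. IC50 came from Hill fits, as geometric mean of ≥2 runs.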

Chain of hGYS1 enzyme (recombinant hGYS1/GN1 protein) (P13807 whole entry): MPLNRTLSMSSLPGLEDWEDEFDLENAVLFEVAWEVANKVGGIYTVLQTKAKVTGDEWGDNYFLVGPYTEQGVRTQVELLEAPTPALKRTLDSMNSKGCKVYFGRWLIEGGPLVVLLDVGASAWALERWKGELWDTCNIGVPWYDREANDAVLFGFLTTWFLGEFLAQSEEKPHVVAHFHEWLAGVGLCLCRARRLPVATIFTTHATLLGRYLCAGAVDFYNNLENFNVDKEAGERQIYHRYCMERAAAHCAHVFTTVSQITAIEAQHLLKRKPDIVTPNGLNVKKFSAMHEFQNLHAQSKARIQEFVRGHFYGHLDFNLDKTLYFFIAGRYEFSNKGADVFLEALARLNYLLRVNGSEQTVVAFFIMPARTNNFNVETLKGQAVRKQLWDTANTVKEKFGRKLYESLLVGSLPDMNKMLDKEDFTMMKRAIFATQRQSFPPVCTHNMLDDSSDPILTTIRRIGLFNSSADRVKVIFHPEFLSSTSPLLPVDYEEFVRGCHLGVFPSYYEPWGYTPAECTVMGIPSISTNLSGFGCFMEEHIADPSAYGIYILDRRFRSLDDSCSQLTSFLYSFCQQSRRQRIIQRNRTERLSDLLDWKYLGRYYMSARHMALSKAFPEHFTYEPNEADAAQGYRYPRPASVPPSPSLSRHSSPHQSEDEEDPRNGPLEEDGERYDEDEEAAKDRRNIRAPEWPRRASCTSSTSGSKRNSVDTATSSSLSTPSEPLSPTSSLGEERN
Chain of hGYS1 enzyme (recombinant hGYS1/GN1 protein) (P46976 whole entry partner): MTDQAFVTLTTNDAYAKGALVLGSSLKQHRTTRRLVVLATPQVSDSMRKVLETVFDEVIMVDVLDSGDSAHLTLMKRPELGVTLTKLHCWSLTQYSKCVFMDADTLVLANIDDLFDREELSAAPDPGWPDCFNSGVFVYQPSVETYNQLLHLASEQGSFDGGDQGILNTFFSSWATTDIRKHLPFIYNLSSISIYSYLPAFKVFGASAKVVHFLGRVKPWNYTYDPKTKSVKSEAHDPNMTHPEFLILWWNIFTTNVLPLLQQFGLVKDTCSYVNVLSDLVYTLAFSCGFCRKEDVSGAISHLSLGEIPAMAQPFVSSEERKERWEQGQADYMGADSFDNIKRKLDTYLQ

What is called IC50 is the concentration needed to halve the response being measured. For the compound `CC(C)c1ccc([C@H](NC(=O)[C@@H]2C[C@@H](F)CN2C(=O)Cc2cnn[nH]2)c2cccc(-c3ccn[nH]3)c2)nc1F` [Compound 687, (2S,4R)-1-(2-(1H-1,2,3-triazol-5-yl)acetyl)-N—((R)-(3-(1H-pyrazol-5-yl)phenyl)(6-fluoro-5-isopropylpyridin-2-yl)methyl)-4-fluoropyrrolidine-2-carboxamide], the IC50 in test [1] was 3820 nM; in test [2], > 30000 nM.
Consider `COc1nc(CC(=O)N2C[C@H](F)C[C@H]2C(=O)N[C@@H](c2ccccc2)c2ccc(C(C)C)cn2)nn1C` [Compound 712, (2S,4R)-4-fluoro-1-[2-(5-methoxy-1-methyl-1H-1,2,4-triazol-3-yl)acetyl]-N-[(S)-phenyl[5-(propan-2-yl)pyridin-2-yl]methyl]pyrrolidine-2-carboxamide], for which the IC50 in test [1] was 15 nM; in test [2], 330 nM.
For `CCN(CC)c1cnnn1CC(=O)N1C[C@H](F)C[C@H]1C(=O)N[C@@H](c1ccccc1)c1ccc(C(C)C)cn1` [Compound 713, (2S,4R)-1-{2-[5-(diethylamino)-1H-1,2,3-triazol-1-yl]acetyl}-4-fluoro-N-[(S)-phenyl[5-(propan-2-yl)pyridin-2-yl]methyl]pyrrolidine-2-carboxamide], in that order: 74 nM and 860 nM.
The corresponding values for `CC(C)c1ccc([C@@H](NC(=O)[C@@H]2C[C@@H](F)CN2C(=O)Cn2nncc2N2CC(F)(F)C2)c2ccccc2)nc1` [Compound 714, (2S,4R)-1-{2-[5-(3,3-difluoroazetidin-1-yl)-1H-1,2,3-triazol-1-yl]acetyl}-4-fluoro-N-[(S)-phenyl[5-(propan-2-yl)pyridin-2-yl]methyl]pyrrolidine-2-carboxamide] are 45 nM and 1390 nM.
For the compound `CN(C)c1cnn(CC(=O)N2C[C@H](F)C[C@H]2C(=O)N[C@H](c2ccccc2)c2ccc(C3CC3)c(F)n2)n1` [Compound 717, (2S,4R)-N-[(R)-(5-cyclopropyl-6-fluoropyridin-2-yl)(phenyl)methyl]-1-{2-[4-(dimethylamino)-2H-1,2,3-triazol-2-yl]acetyl}-4-fluoropyrrolidine-2-carboxamide], the IC50 is 1480 nM in test [1] and > 25800 nM in test [2].
The corresponding values for `O=C(N[C@H](c1ccccc1)c1ccc(C2CC2)c(F)n1)[C@@H]1C[C@@H](F)CN1C(=O)Cc1cccn2c(=O)[nH]nc12` [Compound 718, (2S,4R)-N-[(R)-(5-cyclopropyl-6-fluoropyridin-2-yl)(phenyl)methyl]-4-fluoro-1-(2-{3-oxo-2H,3H-[1,2,4]triazolo[4,3-a]pyridin-8-yl}acetyl)pyrrolidine-2-carboxamide] are 2620 nM and > 30000 nM.
For `Cc1nccc(NCC(=O)N2C[C@H](F)C[C@H]2C(=O)N[C@H](c2ccccc2)c2ccc(C3CC3)c(F)n2)n1` [Compound 720, (2S,4R)-N-[(R)-(5-cyclopropyl-6-fluoropyridin-2-yl)(phenyl)methyl]-4-fluoro-1-{2-[(2-methylpyrimidin-4-yl)amino]acetyl}pyrrolidine-2-carboxamide], in that order: 2450 nM and > 30000 nM.
For `O=C(N[C@@H](c1ccccc1)c1ccc(C2CC2)c(F)n1)[C@@H]1C[C@@H](F)CN1C(=O)Cc1cnn[nH]1` [Compound 721, (2S,4R)-N-[(S)-(5-cyclopropyl-6-fluoropyridin-2-yl)(phenyl)methyl]-4-fluoro-1-[2-(1H-1,2,3-triazol-5-yl)acetyl]pyrrolidine-2-carboxamide], in that order: 79 nM and 1090 nM.
For `O=C(N[C@@H](c1ccccc1)c1ccc(C2CC2)c(F)n1)[C@@H]1C[C@@H](F)CN1C(=O)Cn1ccc(C(F)(F)F)n1` [Compound 730, (2S,4R)-N-[(S)-(5-cyclopropyl-6-fluoropyridin-2-yl)(phenyl)methyl]-4-fluoro-1-{2-[3-(trifluoromethyl)-1H-pyrazol-1-yl]acetyl}pyrrolidine-2-carboxamide], the IC50 in test [1] amounted to 37 nM; in test [2] it was 760 nM.
The corresponding values for `CCOc1ncc(CC(=O)N2C[C@H](F)C[C@H]2C(=O)N[C@@H](c2ccccc2)c2ccc(C3CC3)c(F)n2)cc1C` [Compound 737, (2S,4R)-N-[(S)-(5-cyclopropyl-6-fluoropyridin-2-yl)(phenyl)methyl]-1-[2-(6-ethoxy-5-methylpyridin-3-yl)acetyl]-4-fluoropyrrolidine-2-carboxamide] are 37 nM and 550 nM.
Regarding `O=C(N[C@@H](c1ccccc1)c1ccc(C2CC2)c(F)n1)[C@@H]1C[C@@H](F)CN1C(=O)Cc1nc(C(F)(F)F)co1` [Compound 738, (2S,4R)-N-[(S)-(5-cyclopropyl-6-fluoropyridin-2-yl)(phenyl)methyl]-4-fluoro-1-{2-[4-(trifluoromethyl)-1,3-oxazol-2-yl]acetyl}pyrrolidine-2-carboxamide], the IC50 in test [1] stood at 105 nM; in test [2] it was 1210 nM.
The corresponding values for `CCn1cc(CC(=O)N2C[C@H](F)C[C@H]2C(=O)N[C@@H](c2ccccc2)c2ccc(C3CC3)c(F)n2)cc(C)c1=O` [Compound 739, (2S,4R)-N-[(S)-(5-cyclopropyl-6-fluoropyridin-2-yl)(phenyl)methyl]-1-[2-(1-ethyl-5-methyl-6-oxo-1,6-dihydropyridin-3-yl)acetyl]-4-fluoropyrrolidine-2-carboxamide] are 17 nM and 340 nM.
Take `CCn1cc(C)cc(CC(=O)N2C[C@H](F)C[C@H]2C(=O)N[C@@H](c2ccccc2)c2ccc(C3CC3)c(F)n2)c1=O` [Compound 740, (2S,4R)-N-[(S)-(5-cyclopropyl-6-fluoropyridin-2-yl)(phenyl)methyl]-1-[2-(1-ethyl-5-methyl-2-oxo-1,2-dihydropyridin-3-yl)acetyl]-4-fluoropyrrolidine-2-carboxamide]: the half-maximal inhibitory concentration (IC50) in test [1] stood at 9 nM; in test [2], 320 nM.
On to `CCn1cccc(CC(=O)N2C[C@H](F)C[C@H]2C(=O)N[C@@H](c2ccccc2)c2ccc(C3CC3)c(F)n2)c1=O` [Compound 741, (2S,4R)-N-[(S)-(5-cyclopropyl-6-fluoropyridin-2-yl)(phenyl)methyl]-1-[2-(1-ethyl-2-oxo-1,2-dihydropyridin-3-yl)acetyl]-4-fluoropyrrolidine-2-carboxamide], for which the results for the IC50 in test [1] and in test [2] were 16 nM and 710 nM, respectively.
For `CCn1cc(CC(=O)N2C[C@H](F)C[C@H]2C(=O)N[C@@H](c2ccccc2)c2ccc(C3CC3)c(F)n2)ncc1=O` [Compound 742, (2S,4R)-N-[(S)-(5-cyclopropyl-6-fluoropyridin-2-yl)(phenyl)methyl]-1-[2-(4-ethyl-5-oxo-4,5-dihydropyrazin-2-yl)acetyl]-4-fluoropyrrolidine-2-carboxamide], the IC50 amounted to 24 nM in test [1] and 630 nM in test [2].
For `COc1nc(CC(=O)N2C[C@H](F)C[C@H]2C(=O)N[C@@H](c2ccccc2)c2ccc(C3CC3)c(F)n2)nn1C` [Compound 743, (2S,4R)-N-[(S)-(5-cyclopropyl-6-fluoropyridin-2-yl)(phenyl)methyl]-4-fluoro-1-[2-(5-methoxy-1-methyl-1H-1,2,4-triazol-3-yl)acetyl]pyrrolidine-2-carboxamide], in that order: 28 nM and 480 nM.
The corresponding values for `O=C(N[C@@H](c1ccccc1)c1ccc(C2CC2)c(F)n1)[C@@H]1C[C@@H](F)CN1C(=O)CNC(=O)N(Cc1ccccc1)C(F)(F)F` [Compound 744, (2S,4R)-1-(2-{[benzyl(trifluoromethyl)carbamoyl]amino}acetyl)-N-[(S)-(5-cyclopropyl-6-fluoropyridin-2-yl)(phenyl)methyl]-4-fluoropyrrolidine-2-carboxamide] are 46 nM and 1520 nM.
The corresponding values for `O=C(N[C@@H](c1ccccc1)c1ccc(C2CC2)c(F)n1)[C@@H]1C[C@@H](F)CN1C(=O)Cn1nncc1C(F)(F)F` [Compound 745, (2S,4R)-N-[(S)-(5-cyclopropyl-6-fluoropyridin-2-yl)(phenyl)methyl]-4-fluoro-1-{2-[5-(trifluoromethyl)-1H-1,2,3-triazol-1-yl]acetyl}pyrrolidine-2-carboxamide] are 24 nM and 510 nM.
`O=C(N[C@@H](c1ccccc1)c1ccc(C2CC2)c(F)n1)[C@@H]1C[C@@H](F)CN1C(=O)Cc1c[nH]c(=O)cn1` [Compound 746, (2S,4R)-N-[(S)-(5-cyclopropyl-6-fluoropyridin-2-yl)(phenyl)methyl]-4-fluoro-1-[2-(5-oxo-4,5-dihydropyrazin-2-yl)acetyl]pyrrolidine-2-carboxamide]: the IC50 in test [1] stood at 70 nM; in test [2], 1620 nM.
For `O=C(N[C@@H](c1ccccc1)c1ccc(C2CC2)c(F)n1)[C@@H]1C[C@@H](F)CN1C(=O)Cn1nncc1C(F)F` [Compound 747, (2S,4R)-N-[(S)-(5-cyclopropyl-6-fluoropyridin-2-yl)(phenyl)methyl]-1-{2-[5-(difluoromethyl)-1H-1,2,3-triazol-1-yl]acetyl}-4-fluoropyrrolidine-2-carboxamide], in that order: 16 nM and 420 nM.
The corresponding values for `CCN(CC)c1cnnn1CC(=O)N1C[C@H](F)C[C@H]1C(=O)N[C@@H](c1ccccc1)c1ccc(C2CC2)c(F)n1` [Compound 748, (2S,4R)-N-[(S)-(5-cyclopropyl-6-fluoropyridin-2-yl)(phenyl)methyl]-1-{2-[5-(diethylamino)-1H-1,2,3-triazol-1-yl]acetyl}-4-fluoropyrrolidine-2-carboxamide] are 15 nM and 530 nM.

The record behind these values is US11814367B2, “Inhibitors of glycogen synthase 1 (GYS1) and methods of use thereof” (Maze Therapeutics, Inc., priority 2021, dated 2023).
